We go through one compound from patent US11311646B2, “Therapeutic material” (ASTON UNIVERSITY, priority 2016, dated 2022).

Test [1] relates to Human osteoblasts (NHOst). Kind of test: MTT viability assay, NHOst. It is filed as cell-based. The conditions noted are these: 10 nm etoposide, 72 hours. Here is the method:
Human osteoblasts (NHOst) were purchased from Lonza and cultured in Clonetics OGM Osteoblast growth media supplemented with 10% FBS, 1% L-glutamine and 1% penicillin, streptomycin. Both cell lines were maintained at 37° C. in a humidified atmosphere of 5% CO2/95% air.
(§1) Stock solutions of conditioned media were prepared by dissolving glass particles (from Example 1-3) in complete McCoy's 5A medium to treat Saos-2 cells and Clonetics OGM Osteoblast complete growth media to treat osteoblasts.
(§2) Stock solutions were prepared at a concentration of 10 mg/ml and left to incubate in a shaker incubator at 250 rpm at 37° C. for 24 hours. Following the 24 hour incubation period, stock solutions were filtered using 0.2 micron syringe filter. 3 ml samples were excluded to record stock solution pH values following glass dissolution.
(§3) Cell cytotoxicity was analysed using MTT viability assay (Thermo Fisher), where 5000 cells per well of both Saos-2 and NHOst cells were cultured using conditioned media containing 10 mg/ml respective glass compositions (Examples 1-3), for a period of 72 hours. […] Metabolically active cells reduce MTT to formazan and after formazan extraction the optical density was measured using a spectrophotometer (at 570 nm). […]
On the technique in general: Tetrazolium assays rely on reduction of a dye to a coloured formazan, in cell work by metabolically active cells.

The test system of test [2] is Human osteosarcoma (Saos-2) cells. Nature of the test: MTT viability assay, Saos-2. It is filed as cell-based. The conditions noted are these: 10 nm etoposide, 72 hours. Here is the method:
Human osteosarcoma (Saos-2) cells were purchased from the American Tissue Culture Collection and maintained in McCoy's 5A medium containing 1.5 mM L-glutamine and 2200 mg/L sodium bicarbonate. Media was supplemented with 1% penicillin, streptomycin and 15% foetal bovine serum (FBS).
as §1, §2, §3

With `COc1cc([C@@H]2c3cc4c(cc3[C@@H](O[C@@H]3O[C@@H]5CO[C@@H](C)O[C@H]5[C@H](O)[C@H]3O)[C@H]3COC(=O)[C@H]23)OCO4)cc(OC)c1O` [etoposide, Etoposide], the “NHOst cell death, positive control” value in test [1] is “inducer of cell death (p<0.0001)”. Besides, in test [2], the “Saos-2 cell death, positive control” value is listed as “inducer of cell death (p<0.0001)”.
